In patent publication US7504508B2, “PGD2 receptor antagonists for the treatment of inflammatory diseases” (Millennium Pharmaceuticals, Inc., priority 2002, dated 2009):

Target: T1, cloned human CRTH2 receptor (Homo sapiens, UniProt Q9Y5Y4)
T1 construct: purchased Biosignal; host or cells: HEK-293 cells stably expressing human CRTH2 and G-alpha-16 (membranes)
T1 sequence (Q9Y5Y4 1-395): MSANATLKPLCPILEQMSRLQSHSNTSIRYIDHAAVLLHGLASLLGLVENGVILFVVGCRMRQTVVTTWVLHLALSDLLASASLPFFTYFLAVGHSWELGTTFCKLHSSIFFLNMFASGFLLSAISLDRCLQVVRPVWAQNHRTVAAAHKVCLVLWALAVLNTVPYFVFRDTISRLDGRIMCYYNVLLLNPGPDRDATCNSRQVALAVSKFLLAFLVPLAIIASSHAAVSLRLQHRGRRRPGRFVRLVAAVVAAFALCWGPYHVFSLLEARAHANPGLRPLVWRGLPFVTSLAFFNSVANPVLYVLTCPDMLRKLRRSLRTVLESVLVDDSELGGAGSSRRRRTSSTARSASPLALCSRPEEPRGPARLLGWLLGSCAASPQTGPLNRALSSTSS
Assay: Radioligand membrane binding assay: inhibition of [3H] PGD2 binding to CRTH2 (Scintillation Proximity Assay)
Conditions: inhibition of [3H] PGD2 binding to membranes of HEK-293 cells stably expressing human CRTH2; SPA; 10 point curve from 10 μM; room temperature, approximately 2 hours
How it was run: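 Scintillation proximity binding of [3H] PGD2 (at KD or lower) to membranes of HEK-293 cells stably expressing human CRTH2, in 50 mM Tris-HCl pH 7.5, 5 mM MgCl2, 1 mM EDTA. Ten-point 3-fold series from 10 μM final, ~2 h at room temperature; cold PGD2 defines NSB; percent inhibition, duplicate runs (n=2).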

Row | SMILES | Ki
1 | COc1ccc(C(=O)N2c3ccccc3[C@H](N(C(C)=O)c3ccc(C(=O)O)cc3)C[C@@H]2C)cc1 [Compound C-37, (2S,4R)-4-{Acetyl-[1-(4-methoxy-benzoyl)-2-methyl-1,2,3,4-tetrahydro-quinolin-4-yl]-amino}-benzoic acid] | < 10 µM
2 | COc1ccc(C(=O)N2c3ccccc3[C@H](N(C(C)=O)c3cccc(CN)c3)C[C@@H]2C)cc1 [Compound C-38, (2S,4R)-N-(3-Aminomethyl-phenyl)-N-[1-(4-methoxy-benzoyl)-2-methyl-1,2,3,4-tetrahydro-quinolin-4-yl]-acetamide] | < 10 µM
3 | COc1ccc(C(=O)N2c3ccccc3[C@H](N(C(C)=O)c3ccc(C(C)(C)C(=O)O)cc3)C[C@@H]2C)cc1 [Compound D-1, (2S,4R)-2-(4-{Acetyl-[1-(4-methoxy-benzoyl)-2-methyl-1,2,3,4-tetrahydro-quinolin-4-yl]-amino}-phenyl)-2-methyl-propionic acid] | < 10 µM
4 | COc1ccc(C(=O)N2c3ccccc3[C@H](N(C(C)=O)c3ccc(C(=O)CCC(=O)O)c(Cl)c3)C[C@@H]2C)cc1 [Compound D-2, (2S,4R)-4-(4-{Acetyl-[1-(4-methoxy-benzoyl)-2-methyl-1,2,3,4-tetrahydro-quinolin-4-yl]-amino}-2-chloro-phenyl)-4-oxo-butyric acid] | < 10 µM
5 | COc1ccc(C(=O)N2c3ccccc3[C@H](N(C(C)=O)c3ccc(CCC(=O)O)cc3)C[C@@H]2C)cc1 [Compound D-6, (2S,4R)-3-(4-{Acetyl-[1-(4-methoxy-benzoyl)-2-methyl-1,2,3,4-tetrahydro-quinolin-4-yl]-amino}-phenyl)-propionic acid] | < 10 µM
6 | COc1ccc(C(=O)N2c3ccccc3[C@H](N(C(C)=O)c3ccc(OCC(=O)O)cc3)C[C@@H]2C)cc1 [Compound D-10, (2S,4R)-(4-{Acetyl-[1-(4-methoxybenzoyl)-2-methyl-1,2,3,4-tetrahydro-quinolin-4-yl]-amino}-phenoxy)-acetic acid] | < 10 µM
7 | COc1cccc(C(=O)N2c3ccccc3C(N(C(C)=O)c3ccccc3)CC2(C)C)c1 (centres unmarked) [Compound F-1, N-[1-(3-Methoxy-benzoyl)-2,2-dimethyl-1,2,3,4-tetrahydro-quinolin-4-yl]-N-phenyl-acetamide] | < 60 µM
8 | COc1cccc(C(=O)N2CCC(N(C(C)=O)c3ccccc3)c3ccccc32)c1 (centres unmarked) [Compound F-3, N-[1-(3-Methoxy-benzoyl)-1,2,3,4-tetrahydro-quinolin-4-yl]-N-phenyl-acetamide] | < 10 µM
